Tests used:
[1] = Antioxidant activity assessed as trolox equivalent of peroxyl radical scavenging activity at 1 to 5 uM after 15 mins by oxygen radical absorbance capacity-fluorescein assay; type: functional
[2] = target: Amyloid-beta precursor protein (Homo sapiens) (UniProt P05067); assay: Inhibition of amyloid beta (1 to 42) aggregation (unknown origin) at 20 uM after 48 hrs by thioflavin-T fluorescence assay relative to control
[3] = target: T1, Acetylcholinesterase (Electrophorus electricus, UniProt O42275)
T1 sequence (O42275 whole entry): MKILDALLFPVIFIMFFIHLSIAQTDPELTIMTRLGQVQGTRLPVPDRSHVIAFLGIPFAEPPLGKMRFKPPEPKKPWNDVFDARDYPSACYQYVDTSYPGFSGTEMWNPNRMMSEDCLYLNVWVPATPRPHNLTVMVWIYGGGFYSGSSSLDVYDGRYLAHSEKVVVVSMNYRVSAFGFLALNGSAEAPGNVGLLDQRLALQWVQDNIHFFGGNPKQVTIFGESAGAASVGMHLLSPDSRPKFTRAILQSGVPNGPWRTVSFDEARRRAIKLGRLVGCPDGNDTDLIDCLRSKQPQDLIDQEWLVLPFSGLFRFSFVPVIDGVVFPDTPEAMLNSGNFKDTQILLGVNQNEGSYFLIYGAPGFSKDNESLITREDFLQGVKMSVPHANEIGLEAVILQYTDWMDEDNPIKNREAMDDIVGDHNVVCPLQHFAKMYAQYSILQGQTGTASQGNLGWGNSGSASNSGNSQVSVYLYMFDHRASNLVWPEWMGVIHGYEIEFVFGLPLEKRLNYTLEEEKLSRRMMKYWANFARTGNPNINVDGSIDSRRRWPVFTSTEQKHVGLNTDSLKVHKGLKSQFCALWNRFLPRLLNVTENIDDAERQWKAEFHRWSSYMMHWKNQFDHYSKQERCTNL
Description: Inhibition of electric eel AChE using acetylthiocholine chloride as substrate incubated for 15 mins prior to substrate addition by Ellman's method

[4] = target: Cholinesterase (Equus caballus, UniProt P81908)
Sequence of Cholinesterase (P81908 whole entry): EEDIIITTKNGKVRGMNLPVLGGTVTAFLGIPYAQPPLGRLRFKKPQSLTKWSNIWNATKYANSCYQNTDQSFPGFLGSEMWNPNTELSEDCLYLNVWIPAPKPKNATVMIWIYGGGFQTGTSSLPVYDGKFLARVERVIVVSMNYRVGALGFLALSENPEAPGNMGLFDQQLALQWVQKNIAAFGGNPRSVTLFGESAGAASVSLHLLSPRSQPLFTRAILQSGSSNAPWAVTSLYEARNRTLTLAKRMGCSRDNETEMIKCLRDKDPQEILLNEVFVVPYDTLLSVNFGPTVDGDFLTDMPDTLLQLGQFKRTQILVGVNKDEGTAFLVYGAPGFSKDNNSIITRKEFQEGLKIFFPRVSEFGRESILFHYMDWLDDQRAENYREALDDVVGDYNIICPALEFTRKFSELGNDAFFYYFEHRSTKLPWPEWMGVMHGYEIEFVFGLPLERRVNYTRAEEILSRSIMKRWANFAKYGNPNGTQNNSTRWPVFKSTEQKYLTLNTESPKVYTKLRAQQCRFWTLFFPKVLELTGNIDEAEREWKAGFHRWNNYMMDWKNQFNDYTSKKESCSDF
Description: Inhibition of equine serum BChE using butylthiocholine chloride as substrate incubated for 15 mins prior to substrate addition by Ellman's method

[5] = target: T1, Acetylcholinesterase; assay: Mixed-type inhibition of electric eel AChE using acetylthiocholine chloride as substrate incubated for 15 mins prior to substrate addition by Lineweaver-Burk plot analysis

Sequence of Amyloid-beta precursor protein (Homo sapiens) (P05067 whole entry): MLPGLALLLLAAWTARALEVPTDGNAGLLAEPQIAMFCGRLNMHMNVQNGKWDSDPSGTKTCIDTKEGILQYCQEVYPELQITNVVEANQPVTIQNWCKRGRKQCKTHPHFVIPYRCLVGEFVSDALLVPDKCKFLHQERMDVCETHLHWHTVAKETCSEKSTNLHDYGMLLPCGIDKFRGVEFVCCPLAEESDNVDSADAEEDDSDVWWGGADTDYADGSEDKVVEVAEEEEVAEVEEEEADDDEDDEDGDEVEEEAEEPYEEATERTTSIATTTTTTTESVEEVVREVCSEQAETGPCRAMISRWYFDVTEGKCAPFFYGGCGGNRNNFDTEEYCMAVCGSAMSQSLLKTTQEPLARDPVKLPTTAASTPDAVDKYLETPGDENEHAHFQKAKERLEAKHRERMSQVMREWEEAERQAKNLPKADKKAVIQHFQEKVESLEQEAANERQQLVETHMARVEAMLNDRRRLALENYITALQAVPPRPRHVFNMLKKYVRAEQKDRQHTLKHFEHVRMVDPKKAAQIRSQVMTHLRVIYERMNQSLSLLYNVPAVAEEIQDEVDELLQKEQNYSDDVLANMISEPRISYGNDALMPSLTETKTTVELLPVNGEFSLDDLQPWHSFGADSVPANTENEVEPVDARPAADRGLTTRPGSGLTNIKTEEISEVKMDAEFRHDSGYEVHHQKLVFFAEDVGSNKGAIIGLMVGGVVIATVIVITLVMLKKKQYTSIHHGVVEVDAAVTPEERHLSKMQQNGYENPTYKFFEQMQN

SMILES	Activity [1]	inhibition [2]	IC50 [3]	IC50 [4]	Ki [5]
CN(CCCCCCCCCCOc1ccc2c(=O)cc(-c3ccc(N(C)C)cc3)oc2c1)Cc1ccccc1	1.5	29.4%	11.4 µM	> 50 µM	
CN(CCCCOc1ccc2c(=O)cc(-c3ccc(N(C)C)cc3)oc2c1)Cc1ccccc1		39.1%	8.29 µM	> 50 µM	
CN(C)c1ccc(-c2cc(=O)c3ccc(OCCCCCCCCN4CCCCC4)cc3o2)cc1	1.5	34.8%	7.88 µM	8.72 µM	
CN(C)c1ccc(-c2cc(=O)c3ccc(OCCCCCCCCCCN4CCCC4)cc3o2)cc1	1.5	38.6%	2.26 µM	0.82 µM	
CN(C)c1ccc(-c2cc(=O)c3ccc(OCCCCCCCCN4CCCC4)cc3o2)cc1	1.5	42.1%	1.99 µM	2.6 µM	
CCN(CC)CCCCCCOc1ccc2c(=O)cc(-c3ccc(N(C)C)cc3)oc2c1		38.1%	3.11 µM	4.61 µM	
CCN(CC)CCCCOc1ccc2c(=O)cc(-c3ccc(N(C)C)cc3)oc2c1		33.2%	2.24 µM	7.88 µM	
CN(C)c1ccc(-c2cc(=O)c3ccc(OCCCCCCN4CCCCC4)cc3o2)cc1		25.4%	6.73 µM	5.52 µM	
CN(C)c1ccc(-c2cc(=O)c3ccc(OCCCCN4CCCCC4)cc3o2)cc1		30.6%	3.04 µM	6.12 µM	
CN(CCCCCCCCOc1ccc2c(=O)cc(-c3ccc(N(C)C)cc3)oc2c1)Cc1ccccc1	1.5	39.5%	24 µM	> 50 µM	
CN(C)c1ccc(-c2cc(=O)c3ccc(OCCCCCCN4CCCC4)cc3o2)cc1		32.6%	9.18 µM	11.5 µM	
CN(CCCCCCOc1ccc2c(=O)cc(-c3ccc(N(C)C)cc3)oc2c1)Cc1ccccc1		46.5%	7.85 µM	> 50 µM	
CCN(CC)CCCCCCCCCCOc1ccc2c(=O)cc(-c3ccc(N(C)C)cc3)oc2c1	1.5	33.4%	3.74 µM	2.31 µM	
CN(C)c1ccc(-c2cc(=O)c3ccc(OCCCCCCCCCCN4CCCCC4)cc3o2)cc1	1.5	40.7%	> 50 µM	2.42 µM	
CCN(CC)CCCCCCCCOc1ccc2c(=O)cc(-c3ccc(N(C)C)cc3)oc2c1	1.5	45.8%	1.83 µM	5.01 µM	0.386 µM
CN(C)c1ccc(-c2cc(=O)c3ccc(OCCCCN4CCOCC4)cc3o2)cc1		44.7%	> 50 µM	10.1 µM	
CN(C)c1ccc(-c2cc(=O)c3ccc(OCCCCN4CCCC4)cc3o2)cc1		36.6%	2.77 µM	6.14 µM	
CN(CCCCCCCCCCCCOc1ccc2c(=O)cc(-c3ccc(N(C)C)cc3)oc2c1)Cc1ccccc1		48.1%	33.2 µM	> 50 µM	

— ChEMBL document CHEMBL3091294, “Design, synthesis and evaluation of novel 4-dimethylamine flavonoid derivatives as potential multi-functional anti-Alzheimer agents” (Bioorg Med Chem, 2013)
